Columns and labels:
[1] = tested on: mice; details: mouse, in vivo
[2] = tested on: mice; details: mouse, in vivo, iv
[3] = tested on: mice; details: mouse, in vivo; remark: listed apart in the source

Compound: CSCC[C@@H]1NC(=O)[C@H](CC(C)C)NC(=O)[C@H](CCCNC(=N)N)NC(=O)[C@H](CO)NC(=O)[C@@H]2CSSC[C@@H]3NC(=O)[C@H](CO)NC(=O)CNC(=O)[C@H]([C@@H](C)O)NC(=O)[C@H](CSSC[C@H](N)C(=O)N[C@@H](CCCCN)C(=O)NCC(=O)N[C@@H](CCCCN)C(=O)NCC(=O)N[C@@H](C)C(=O)N[C@@H](CCCCN)C(=O)N2)NC(=O)[C@H](CSSC[C@@H](C(N)=O)NC(=O)[C@H](CCCCN)NC(=O)CNC(=O)[C@H](CO)NC(=O)[C@H](CCCNC(=N)N)NC3=O)NC(=O)[C@H](CC(=O)O)NC(=O)[C@H](Cc2ccc(O)cc2)NC1=O [MVIIA, reference compound]
- tremor symptoms and tremor time (side effects) 30 minutes after administration [1]: more obvious tremor symptoms and longer tremor time

Compound: CKGKGAKCSRLMYDCCTGSCRSGKCGGGYGRKKRRQRRR [MVIIA-d]
- antinociceptive effect 1 hour after injection [2]: showed antinociceptive effects
- duration of the maximal effect [2]: about 4 hours
- onset of antinociceptive effect after nasal administration [3]: immediate effect
- tremor symptoms and tremor time (side effects) 30 minutes after administration [1]: lower than that of MVIIA
- tremor symptoms and tremor time (side effects) 120 minutes after administration, compared with MVIIA [1]: no significant differences

Compound: CKGKGAKCSRLMYDCCTGSCRSGKCGGYGRKKRRQRRR [MVIIA-c]
- duration of the maximal effect [2]: about 4 hours
- time of maximal (strongest) antinociceptive effect after administration [2]: 3 h
- difference from the saline group at 8 hours [3]: still significantly different
- onset of antinociceptive effect after nasal administration [3]: immediate effect
- time after which the effect disappears [3]: 10 h
- tremor symptoms and tremor time (side effects) 30 minutes after administration [1]: lower than that of MVIIA
- tremor symptoms and tremor time (side effects) 120 minutes after administration, compared with MVIIA [1]: no significant differences

Compound: CKGKGAKCSRLMYDCCTGSCRSGKCGYGRKKRRQRRR [MVIIA-b]
- antinociceptive effect 1 hour after injection [2]: showed antinociceptive effects
- duration of the maximal effect [2]: about 4 hours
- difference from the saline group at 8 hours [3]: still significantly different
- onset of antinociceptive effect after nasal administration [3]: immediate effect
- time after which the effect disappears [3]: 10 h
- tremor symptoms and tremor time (side effects) 30 minutes after administration [1]: lower than that of MVIIA
- tremor symptoms and tremor time (side effects) 120 minutes after administration, compared with MVIIA [1]: no significant differences

Compound: CKGKGAKCSRLMYDCCTGSCRSGKCYGRKKRRQRRR [MVIIA-a]
- antinociceptive effect 1 hour after injection [2]: showed antinociceptive effects
- duration of the maximal effect [2]: about 4 hours
- onset of antinociceptive effect after nasal administration [3]: immediate effect
- tremor symptoms and tremor time (side effects) 30 minutes after administration [1]: lower than that of MVIIA
- tremor symptoms and tremor time (side effects) 120 minutes after administration, compared with MVIIA [1]: no significant differences

— patent US11814416B2, “Polypeptide capable of passing through blood-brain barrier” (SHENZHEN RUIJIAN […] COMPANY, priority 2018, dated 2023)
